Experimental data from patent US8829195B2, “Compounds and compositions for inhibiting the activity of ABL1, ABL2 and BCR-ABL1” (Novartis AG, priority 2012, dated 2014).

Tests used:
[1] = target: T1, ABL1 (64-515) (Homo sapiens, UniProt P00519); assay: Caliper ABL1 (64-515) microfluidic mobility shift assay; type: biochemical
T1 construct: 3.5 nM ABL (ABL(64-515), produced in-house from E. coli); His6 followed by a PreScission protease cleavage site (N, cleaved yes); made in house; host or cells: E. coli (BL21 (DE3) according to b733)
Method: All assays were performed in 384-well microtiter plates. Each assay plate contained 8-point serial dilutions for 40 test compounds, as well as four 8-point serial dilutions of staurosporine as a reference compound, plus 16 high and 16 low controls. Liquid handling and incubation steps were done on a Thermo CatX workstation equipped with Innovadyne Nanodrop Express. Between pipetting steps, tips were cleaned in wash cycles using wash buffer.
The assay plates were prepared by addition of 50 mL per well of compound solution in 90% DMSO. […] Plates with terminated kinase reactions were transferred to the Caliper LC3000 workstations for reading. Phosphorylated and unphosphorylated peptides were separated using the Caliper microfluidic mobility shift technology. Briefly, samples from terminated kinase reactions were applied to the chip. Analytes are transported through the chip by constant buffer flow and the migration of the substrate peptide is monitored by the fluorescence signal of its label. Phosphorylated peptide (product) and unphosphorylated peptide (substrate) are separated in an electric field by their charge/mass ratio. Kinase activities were calculated from the amounts of formed phospho-peptide. IC50 values were determined from percent inhibition values at different compound concentrations by non-linear regression analysis.
Preparation of compound dilutions: Test compounds were dissolved in DMSO (10 mM) and transferred into 1.4 mL flat bottom or V-shaped Matrix tubes carrying a unique 2D matrix. The stock solutions were stored at +2° C. if not used immediately. For the test procedure the vials were defrosted and identified by a scanner whereby a working sheet was generated that guided the subsequent working steps.
Compound dilutions were made in 96-well plates. This format enabled the assay of maximally 40 individual test compounds at 8 concentrations (single points) including 4 reference compounds. The dilution protocol included the production of “pre-dilution plates”, “master plates” and “assay plates”.
Pre-dilution plates: Polypropylene 96-well plates were used as pre-dilution plates. […] All dilution steps were done on a HamiltonSTAR robot.
These plates were used directly for the assay which was performed in a total volume of 9.05 μL.

[2] = target: T1, ABL1 (64-515); assay: Radio ABL1 (64-515) radiometric filter-binding assay; type: biochemical
Method: Expression and purification of protein kinase—Expression and purification of human ABL was performed using standard expression purification procedures. […] The His-ABL was expressed in E. coli BL21 (DE3) and the ABL proteins were isolated by Ni-affinity on a Ni-NTA column (Qiagen). The His-tag was removed by PreScission protease (GE Healthcare) and the non-phosphoprylated ABL further purified on a Mono Q HR 10/10 (GE Healthcare, mono-phosphorylated ABL is about 10-20% of total ABL protein) and HiLoad 16/60 Superdex 200 size exclusion column (GE Healthcare).
For determination of ABL kinase activity, the radiometric filter-binding assay was used. […] 10 μL of enzyme (ranging between 5 nM to 20 nM) was added to initiate the reaction. Pre-incubation of enzyme with compounds (when stated) was performed by exposing the enzyme to compounds prior to addition of the substrate mixture (ATP and/or peptide substrate). […] Filter-plates were washed 3× with 0.5% H3PO4, followed by addition of 30 μL scintillation cocktail (Microscint, Perkin Elmer) per well and then analysed in a TopCount NXT scintillation counter (Perkin Elmer). Results were expressed as IC50 values.

[3] = target: T2, Ba/F3-BCR-ABL1-T315I cells (Homo sapiens, UniProt P00519, T315I, cells depend on it); assay: Ba/F3-BCR-ABL1-T315I cell proliferation assay; type: cell-based, murine; conditions: 48 hours; read-out: Ba/F3-BCR-ABL1-T315I IC50
T2 construct: A similar approach was used to generate Ba/F3 cells that depend on a BCR-ABL1 variant in which threonine 315 is replaced with isoleucine; fused on or other part: P11274 (Breakpoint cluster region protein)

[4] = target: T3, Ba/F3-BCR-ABL1-WT cells (Homo sapiens, UniProt P00519); assay: Ba/F3-BCR-ABL1-WT cell proliferation assay; type: cell-based, murine; conditions: 48 hours; read-out: Ba/F3-BCR-ABL1-WT IC50
T3 construct: fused on or other part: P11274 (Breakpoint cluster region protein)
Method: To generate Ba/F3 cells that depend on BCR-ABL1 expression for growth and survival, Ba/F3 cells were engineered to express BCR-ABL1 using retroviral transduction with a MSCV based retroviral vector containing a p210 BCR-ABLlexpression cassette. […] These cells are referred to as Ba/F3-BCR-ABL-WT.
Ba/F3-WT cells were maintained in RPMI1640 media with L-glutamine, HEPES (Lonza), 10% FBS (Gibco) and 5 ng/ml IL-3 (Calbiochem). Ba/F3-BCR-ABL1-WT cells and Ba/F3-BCR-ABL1-T315I cells were manitained in RPMI1640 media with L-glutamine, HEPES (Lonza) and 10% FBS (Gibco).
For each cell line, the cell density was adjusted to 50 000 cells/mL and 50 μL (2500 cells) added per well of a 384-well assay plate.
Test compounds were resuspended in DMSO at a concentration of 10 mM. A serial three-fold dilution of each compound with DMSO was performed in 384-well plates using the Janus Liquid Dispenser (PerkinElmer). Compound was delivered to the assay plates containing 2500 cells in a 50 μL volume via Acoustic delivery from an ATS-100 (EDC).
Cells were incubated at 37° C. in a humidified environment with 5% carbon dioxide for 48 hours. Britelite plus solution (Perkin Elmer) was prepared according to the manufacturer's instructions and 25 μL added to each well of the assay plate. […] The degree of luminescence correlates with the number of cells in each well. The effect of each inhibitor concentration can therefore be calculated and IC50 values generated.

[5] = comparison of ortho substitution on R3/R4 ring

SMILES | IC50 ([1]; Table of Biochemical Data) | IC50 [2] | GI50 [3] | GI50 [4] | IC50 [1, 5]
O=C(Nc1ccc(SC(F)(F)F)c(F)c1)c1cnc(N2CC[C@@H](O)C2)c(-c2ccn[nH]2)c1 [Example 15, (R)—N-(3-Fluoro-4-((trifluoromethyl)thio)phenyl)-6-(3-hydroxypyrrolidin-1-yl)-5-(1H-pyrazol-5-yl)nicotinamide] | 0.3 nM | 11 nM | 31 nM | 1.9 nM | 
O=C(Nc1ccc(SC(F)(F)F)cc1)c1cnc(N2CC[C@H](CO)C2)c(-c2ccn[nH]2)c1 [Example 12, (S)-6-(3-(Hydroxymethyl)pyrrolidin-1-yl)-5-(1H-pyrazol-5-yl)-N-(4-((trifluoromethyl)thio)phenyl)nicotinamide] | 0.5 nM | 6 nM | 38 nM | 1.9 nM | 
Cn1cc(-c2cc(C(=O)Nc3ccc(OC(F)(F)F)cc3)cnc2N2CC[C@@H](O)C2)cn1 [Example 6, (R)-6-(3-Hydroxypyrrolidin-1-yl)-5-(1-methyl-1H-pyrazol-4-yl)-N-(4-(trifluoromethoxy)phenyl)nicotinamide] | 3.2 nM | 3 nM |  |  | 
O=C(Nc1ccc(OC(F)(F)Cl)cc1)c1cnc(N2CC[C@@H](OP(=O)(O)O)C2)c(-c2ccn[nH]2)c1 [Example 39, (R)-1-(5-(4-(Chlorodifluoromethoxy)phenyl)carbamoyl)-3-(1H-pyrazol-5-yl)pyridin-2-yl)pyrrolidin-3-yl dihydrogen phosphate] | 1.3 nM | 3 nM |  |  | 
NC[C@@H]1CCN(c2ncc(C(=O)Nc3ccc(OC(F)(F)Cl)cc3)cc2-c2ccn[nH]2)C1 [Example 21, (S)-6-(3-(Aminomethyl)pyrrolidin-1-yl)-N-(4-(chlorodifluoromethoxy)phenyl)-5-(1H-pyrazol-5-yl)nicotinamide] | 1.3 nM | 1 nM | 149 nM | 4 nM | 
O=C(Nc1ccc(OC(F)(F)Cl)cc1)c1cnc(N2CC[C@@H](O)C2)c(-c2cc(C(F)(F)F)n[nH]2)c1 [Example 26, (R)—N-(4-(Chlorodifluoromethoxy)phenyl)-6-(3-hydroxypyrrolidin-1-yl)-5-(3-(trifluoromethyl)-1H-pyrazol-5-yl)nicotinamide] | 10.4 nM | 12 nM | 227 nM | 9 nM | 
O=C(Nc1ccc(C(F)(F)C(F)(F)Cl)cc1)c1cnc(N2CC[C@@H](O)C2)c(-c2ccn[nH]2)c1 [Example 31, (R)—N-(4-(2-Chloro-1,1,2,2-tetrafluoroethyl)phenyl)-6-(3-hydroxypyrrolidin-1-yl)-5-(1H-pyrazol-5-yl)nicotinamide] | 2.5 nM | 1 nM | 133 nM | 4.1 nM | 
O=C(Nc1ccc(SC(F)(F)Cl)cc1)c1cnc(N2CC[C@@H](O)C2)c(-c2ccn[nH]2)c1 [Example 18, (R)—N-(4-((Chlorodifluoromethyl)thio)phenyl)-6-(3-hydroxypyrrolidin-1-yl)-5-(1H-pyrazol-5-yl)nicotinamide] | 0.2 nM | 2 nM | 32 nM | 1.5 nM | 
O=C(Nc1ccc(OC(F)(F)F)cc1)c1cnc(N2CC[C@@H](OP(=O)(O)O)C2)c(-c2ccn[nH]2)c1 [Example 40, (R)-1-(3-(1H-Pyrazol-5-yl)-5-(4-(trifluoromethoxy)phenyl)carbamoyl)pyridin-2-yl)pyrrolidin-3-yl dihydrogen phosphate] | 2.1 nM |  |  |  | 
Cc1cc(-c2cc(C(=O)Nc3ccc(OC(F)(F)F)cc3)cnc2N2CC[C@@H](O)C2)[nH]n1 [Example 3, (R)-6-(3-Hydroxypyrrolidin-1-yl)-5-(3-methyl-1H-pyrazol-5-yl)-N-(4-(trifluoromethoxy)phenyl)nicotinamide] | 0.7 nM | 4 nM | 133 nM | 7.5 nM | 
Cn1nccc1-c1cc(C(=O)Nc2ccc(OC(F)(F)Cl)cc2)cnc1N1CC[C@@H](O)C1 [Example 27, (R)—N-(4-(Chlorodifluoromethoxy)phenyl)-6-(3-hydroxypyrrolidin-1-yl)-5-(1-methyl-1H-pyrazol-5-yl)nicotinamide] | 1.1 nM | 2 nM |  |  | 
O=C(Nc1ccc(SC(F)(F)F)nc1)c1cnc(N2CC[C@@H](O)C2)c(-c2ccn[nH]2)c1 [Example 32, (R)-6-(3-Hydroxypyrrolidin-1-yl)-5-(1H-pyrazol-5-yl)-N-(6-((trifluoromethyl)thio)pyridin-3-yl)nicotinamide] | 13 nM | 3 nM |  |  | 
O=C(Nc1ccc(OC(F)(F)F)c(F)c1)c1cnc(N2CC[C@@H](O)C2)c(-c2ccn[nH]2)c1 [Example 13, (R)—N-(3-Fluoro-4-(trifluoromethoxy)phenyl)-6-(3-hydroxypyrrolidin-1-yl)-5-(1H-pyrazol-5-yl)nicotinamide] | 0.6 nM | 10 nM | 150 nM | 9.6 nM | 
Cc1cc(-c2cc(C(=O)Nc3ccc(OC(F)(F)Cl)cc3)cnc2N2CC[C@@H](O)C2)[nH]n1 [Example 23, (R)—N-(4-(Chlorodifluoromethoxy)phenyl)-6-(3-hydroxypyrrolidin-1-yl)-5-(3-methyl-1H-pyrazol-5-yl)nicotinamide] | 0.5 nM | 7 nM | 42 nM | 1.7 nM | 
O=C(Nc1ccc(OC(F)(F)C(F)(F)F)cc1)c1cnc(N2CC[C@@H](O)C2)c(-c2ccn[nH]2)c1 [Example 19, (R)-6-(3-Hydroxypyrrolidin-1-yl)-N-(4-(perfluoroethoxy)phenyl)-5-(1H-pyrazol-5-yl)nicotinamide] | 1.8 nM | 5 nM | 236 nM | 13.5 nM | 
CC(F)(F)Oc1ccc(NC(=O)c2cnc(N3CC[C@@H](O)C3)c(-c3ccn[nH]3)c2)cc1 [Example 30, (R)—N-(4-(1,1-Difluoroethoxy)phenyl)-6-(3-hydroxypyrrolidin-1-yl)-5-(1H-pyrazol-5-yl)nicotinamide] | 4.3 nM | 0.4 nM | 715 nM | 31.8 nM | 
O=C(Nc1ccc(OC(F)(F)Cl)cc1)c1ccc(N2CC[C@@H](O)C2)c(-c2ccn[nH]2)c1 [Example 20, (R)—N-(4-(Chlorodifluoromethoxy)phenyl)-4-(3-hydroxypyrrolidin-1-yl)-3-(1H-pyrazol-5-yl)benzamide] | 0.4 nM | 1.3 nM |  |  | 
O=C(Nc1ccc(OC(F)(F)Cl)cc1)c1cnc(N2CC[C@H](CO)C2)c(-c2ccn[nH]2)c1 [Example 10, (S)—N-(4-(Chlorodifluoromethoxy)phenyl)-6-(3-(hydroxymethyl)pyrrolidin-1-yl)-5-(1H-pyrazol-5-yl)nicotinamide] | 0.3 nM | < 0.13 nM | 44 nM | 1.9 nM | 
O=C(Nc1ccc(OC(F)(F)F)cc1Cl)c1cnc(N2CC[C@@H](O)C2)c(-c2ccn[nH]2)c1 |  |  |  |  | 1600 nM
O=C(Nc1ccc(OC(F)(F)F)cc1)c1ccc(N2CC[C@@H](O)C2)c(-c2ccn[nH]2)c1 [Example 1, (R)-4-(3-Hydroxypyrrolidin-1-yl)-3-(1H-pyrazol-5-yl)-N-(4-(trifluoromethoxy)phenyl)benzamide] | 2.2 nM | < 3 nM |  |  | 
Cc1cn[nH]c1-c1cc(C(=O)Nc2ccc(OC(F)(F)F)cc2)cnc1N1CC[C@@H](O)C1 [Example 4, (R)-6-(3-Hydroxypyrrolidin-1-yl)-5-(4-methyl-1H-pyrazol-5-yl)-N-(4-(trifluoromethoxy)phenyl)nicotinamide] | 1.3 nM | 3.4 nM | 327 nM | 11.7 nM | 
O=C(Nc1ccc(OC(F)(F)F)cc1)c1cnc(N2CC[C@@H](O)C2)c(-c2[nH]ncc2F)c1 [Example 5, (R)-5-(4-Fluoro-1H-pyrazol-5-yl)-6-(3-hydroxypyrrolidin-1-yl)-N-(4-(trifluoromethoxy)phenyl)nicotinamide] | 1.2 nM | 7 nM | 134 nM | 8.1 nM | 
O=C(Nc1ccc(OC(F)(F)Cl)cc1)c1cnc(N2CCC(C(=O)O)C2)c(-c2ccn[nH]2)c1 (stereo not drawn) [Example 37] | 0.5 nM |  |  |  | 
Cc1cc(OC(F)(F)F)ccc1NC(=O)c1cnc(N2CC[C@@H](O)C2)c(-c2ccn[nH]2)c1 |  |  |  |  | 1800 nM
O=C(Nc1ccc(OC(F)(F)Cl)cc1)c1cnc(N2CC[C@@H](O)C2)c(-c2cnn(CCO)c2)c1 [Example 29, (R)—N-(4-(Chlorodifluoromethoxy)phenyl)-5-(1-(2-hydroxyethyl)-1H-pyrazol-4-yl)-6-(3-hydroxypyrrolidin-1-yl)nicotinamide] | 0.9 nM | 9 nM |  |  | 
COC(=O)C1CCN(c2ncc(C(=O)Nc3ccc(OC(F)(F)Cl)cc3)cc2-c2ccn[nH]2)C1 (stereo not drawn) [Example 36, Methyl 1-(5-((4-(chlorodifluoromethoxy)phenyl)carbamoyl)-3-(1H-pyrazol-5-yl)pyridin-2-yl)pyrrolidine-3-carboxylate] | 2.1 nM |  | 71 nM | 1.9 nM | 
CC(C)[C@H](N)C(=O)O[C@@H]1CCN(c2ncc(C(=O)Nc3ccc(OC(F)(F)Cl)cc3)cc2-c2ccn[nH]2)C1 [Example 38] | 2.5 nM | 4 nM |  |  | 
Cc1cc(-c2cc(C(=O)Nc3ccc(OC(F)(F)Cl)cc3)ccc2N2CC[C@@H](O)C2)[nH]n1 [Example 22, (R)—N-(4-(Chlorodifluoromethoxy)phenyl)-4-(3-hydroxypyrrolidin-1-yl)-3-(3-methyl-1H-pyrazol-5-yl)benzamide] | < 0.64 nM | 6 nM |  |  | 
